Measured values from patent US4031231A, “Antibacterial composition comprising 3-fluoro-D-alanine or deutero analog in combination with auto-antagonist inhibitor” (priority 1976, dated 1977).
In brackets after ≈: the same amount, converted by molar mass. Like-named read-outs stand apart in the source and are kept apart here.

Experiments:
[1] = Release of cycloserine or methyl-cycloserine in vivo when administered clinically; conditions: for effectiveness in releasing cycloserine or methyl-cycloserine in vivo: administered clinically, substantially avoiding dimerization
[2] = Stability in aqueous solution; format: physicochemical
[3] = test system: Escherichia coli (Strain 2017); assay: Growth inhibition (complete repression of growth) of Escherichia coli culture; format: cell-based; conditions: for concentration of FDA-autoantagonist-inhibitor at which growth is completely repressed in combination with 3-fluoro-D-alanine / inhibitor-effective concentration as percentage of its own minimum effective antibacterial concentration: combined with 3-fluoro-D-alanine at 50 μg/ml
Description: When the 3-fluoro-D-alanine, at this concentration of 50 μg/ml, is combined with an FDA-autoantagonist-inhibitor, such as cycloserine at concentrations of only 0.39 μg/ml, terizidone at 0.8 μg/ml, D-4-(1'-methyl-3'-oxo-1'-butenyl)amino-3-isoxazolidinone or its sodium salt at 0.72 μg/ml, or D-cis-cyclothreonine at approximately 2 μg/ml, growth of the Escherichia coli is completely repressed.

[4] = test system: Escherichia coli 2017; assay: Survival of mice infected with Escherichia coli 2017; format: in vivo, Escherichia coli 2017; female C.D.1 mice; conditions: for number of survivors in each group of five infected mice: subcutaneous, 3 LD50
Description: Groups of five female C.D.1 mice of average weight 21.0 g are injected intraperitoneally with 0.5 ml of a diluted broth culture of Escherichia coli 2017 representing 3 LD50 of bacterial pathogens. The indicated dosages of 3-fluoro-D-alanine (FDA) and D-cycloserine are then promptly administered in a 0.5 ml volume by the subcutaneous route on the dorsal surface.
Across the top row of the tabulation are listed the number of mice surviving (in each group of five infected mice) for the indicated doses (mg) of 3-fluoro-D-alanine alone; in the first vertical column are listed the number surviving for the indicated doses (mg) of cycloserine alone; and in the second vertical column are listed the number of mice surviving for combination doses of 5.0 mg of 3-fluoro-D-alanine and the indicated amount (mg) of cycloserine.

[5] = test system: Serratia species 3374; assay: Protection of mice infected with Serratia species 3374 (ED50); format: in vivo, Serratia species 3374; female C.D.1 mice; conditions: 3 LD50; subcutaneous at 0, 2, 4 hours; 50% protected for 7 days
Description: (§1) Female C.D.1 mice of average weight 21.0 g. are injected intraperitoneally with 0.5 ml. of an appropriate dilution of a 16-hour broth culture containing the indicated pathogen. (The severity of the infectious challenge is represented in each case as the multiple of the dilution of the broth culture which is lethal for only 50% of the untreated population, i.e. No. LD50.) Appropriate dosages of 3-fluoro-D-alanine(FDA) and D-cycloserine, individually, and combinations of these two components in a fixed ration of 1:1 are administered in 0.5 ml volume subcutaneously on the dorsal surface, promptly at the time of the injection, and at 2 hour and 4 hour intervals thereafter. The results of these tests, which are expressed as the ED50 dose, which is the statistically interpolated dose required to protect 50% of the infected population for a period of 7 days following challenge and treatment, are as follows: […]

[6] = test system: Escherichia coli (Strain 2017); assay: Growth inhibition (complete repression of growth) of Escherichia coli culture; format: cell-based; conditions: for MIC: Escherichia coli, read-out: minimum concentration for complete inhibition (repression) of growth
[7] = test system: Staphylococcus aureus 2949; assay: Protection of mice infected with Staphylococcus aureus 2949 (ED50); format: in vivo, Staphylococcus aureus 2949; female C.D.1 mice; conditions: 30 LD50; subcutaneous at 0, 2, 4 hours; 50% protected for 7 days
Description: as §1

[8] = individual component alone, E. coli Strain 2017

Row | Compound | effectiveness in releasing cycloserine or methyl-cycloserine in vivo [1] | stability in aqueous solution [2] | concentration of FDA-autoantagonist-inhibitor at which growth is completely repressed in combination with 3-fluoro-D-alanine [3] | inhibitor-effective concentration as percentage of its own minimum effective antibacterial concentration [3] | ED50, individual components [5] | MIC [6, 8] | ED50, individual components [7] | other results
1 | CC(=O)C(C)=C(C)N[C@@H]1CONC1=O [D-4-(1',2'-dimethyl-3'-oxo-1'-butenyl)amino-3-isoxazolidinone] | extremely effective | remarkably stable in aqueous solution |  |  |  |  |  | 
2 | CC(=O)C=C(C)N[C@@H]1CONC1=O [D-4-(1'-methyl-3'-oxo-1'-butenyl)amino-3-isoxazolidinone] | extremely effective | remarkably stable in aqueous solution | 0.72 µg/mL |  |  |  |  | effectiveness in releasing cycloserine in the blood stream and in the bladder ([1]; blood stream, bladder): of particular effectiveness
3 | C[C@@H]1ONC(=O)[C@@H]1N [D-cis-cyclothreonine] |  |  | approximately 2 μg/ml | less than 2% |  |  |  | 
4 | N[C@H](CF)C(=O)O [FDA, 3-fluoro-D-alanine] |  |  |  |  | 1.7 mg/dose | 3.12 µg/mL (≈ 29.1 µM) | 0.801 mg/dose | survival ([4]; 1.25 mg dose of 3-fluoro-D-alanine alone): 80%; survival ([4]; 5.0 mg dose of 3-fluoro-D-alanine alone (autoantagonism)): 20%; number of survivors in each group of five infected mice ([4]; FDA alone 0.078 mg): 0 mice; number of survivors in each group of five infected mice ([4]; FDA alone 0.312 mg): 3 mice; number of survivors in each group of five infected mice ([4]; FDA alone 1.25 mg): 4 mice; number of survivors in each group of five infected mice ([4]; FDA alone 5.0 mg): 1 mice; growth of the organism at higher concentration (autoantagonist action) ([6]; 3-fluoro-D-alanine alone at 50 μg/ml): extensive growth; MIC ([3]; Escherichia coli, read-out: concentration at which growth is completely repressed): 3.2 µg/mL (≈ 29.9 µM)
5 | N[C@@H]1CON=C1O [cycloserine, D-4-amino-3-isoxazolidinone, reference compound] |  |  | 0.39 µg/mL | less than 2% | 2.5 mg/dose | 25 µg/mL (≈ 245 µM) | 0.400 mg/dose | suppression of the autoantagonism shown by 3-fluoro-D-alanine ([4]; 0.156 mg of cycloserine with 5.0 mg of 3-fluoro-D-alanine): completely suppresses the autoantagonism; number of survivors in each group of five infected mice ([4]; D-cycloserine alone 0.078 mg): 0 mice; number of survivors in each group of five infected mice ([4]; D-cycloserine alone 0.312 mg): 0 mice; number of survivors in each group of five infected mice ([4]; D-cycloserine alone 1.25 mg): 3 mice; number of survivors in each group of five infected mice ([4]; D-cycloserine alone 5.0 mg): 5 mice; protection ([4]; cycloserine alone, 0.156 mg): zero protection; minimum concentration for complete inhibition (repression) of growth [6, 8]: 25 µg/mL
6 | O=C1NOCC1/N=C/c1ccc(/C=N/C2CONC2=O)cc1 (stereo not drawn) [terizidone] |  |  | 0.8 µg/mL | less than 2% |  |  |  | 
